# Experimental data: patent publication US20170051149A1, “AZOARYLS AS REVERSIBLY MODULATABLE TUBULIN INHIBITORS” (ECOLE NORMALE SUPERIEURE DE LYON, priority 2014, published 2017)
# Read-outs that look alike come from different tables or passages of the source.
# Legend:
# Type in all cases: cell-based
# MDA-MB-231 cells = experiment: nuclear fragmentation (subG1, Nicoletti), induction of apoptosis; conditions: for EC50: Homo sapiens, MDA-MB-231, 48 h, read-out: EC50, 50% increase of the subG1 population percentage
# Procedure: Different cell types, including MDA-MB-231, Jurkat, HeLa and HepG2 cells, were treated with indicated concentrations of compound I.1 and exposed to a 390 nm toxic regime, a rescue regime with both 390 nm and 515 nm light, or kept in the dark. Following the treatment, cells were stained with PI and the percentage of cells containing a hypodiploid amount of DNA (subG1 phase of cell cycle), was determined. Briefly, prior to analysis, cells were harvested on ice and incubated in a hypotonic buffer [0.1% sodium citrate, 0.1% Triton X-100 and 50 μg/mL propidium iodide (PI)] for 30 min at 4° C. Following the PI staining cells were analysed by flow cytometry using FACSCalibur flow cytometer (Becton Dickinson, Heidelberg, Germany) and Cell Quest Pro Software (Becton Dickinson).
# HeLa cells [1] = experiment: MTT assay; conditions: 48 h
# Description: The cytotoxic properties of I.1 were subsequently confirmed with another method, using the quantification of mitochondrial dehydrogenase activity of cells as determined by the level of 3-(4.5-dimethylthiazol-2-yl)-2.5-diphenyl tetrazolium bromide (MTT) reduction to its purple formazan, according to standard protocol^[30]. […] Cells were kept in the dark, or exposed to a pulsed toxic regime of 390 nm only, or exposed to a strong rescue protocol with pulses of 390 nm then 505 nm light. Pulses of light were applied every 30 s; 390 nm light pulses lasted 150 ms every 30 s, while the 505 nm light pulses were applied for 500 ms; in the strong rescue regime, the 505 nm pulse was synchronised so that it began immediately after the 390 nm pulse ended.
# Cellular viability was measured 48 h later, namely, cells were incubated with MTT for three hours and after dissolution of the formazan crystals with DMSO, absorbance at 550 nm was measured using a FLUOstar Omega microplate reader. Results are shown in Table 5 below and are expressed as a fold growth relative to the control growth of the cells treated only with a co-solvent (0.5% MeCN) and represent mean and standard deviation of quadruplicates of the optical density values, which are proportional to the cell number.
# HeLa cells [2] = experiment: cytotoxicity by crystal violet staining; conditions: 40 h
# Procedure: Seven of the compounds according to the invention were selected for biological tests. Their cytotoxicity was assessed using crystal violet staining as adapted from standard procedure^[31]. Briefly, HeLa cells were seeded on 96-well plates, treated with the given concentrations of the selected compound, and exposed or not to the pulse protocol of illumination with light at 390 nm (pulses of 75 ms every 15 s). After 40 h cells were stained with crystal violet solution (0.5% crystal violet in 20% methanol) for 10 min. Unbound crystal violet was removed by rinsing with distilled water and cells were air-dried. Crystal violet was subsequently eluted from cells with 0.1 M sodium citrate in 50% ethanol. The absorbance of crystal violet is proportional to the cell number and was determined at 590 nm with a FLUOstar Omega microplate reader (BMG Labtech).
# Each compound was tested at 6 doses: 100 nM, 500 nM, 1 μM, 2 μM, 5 μM and 10 μM. In order to ensure their solubility in the cell culture media, DMSO was used as a co-solvent, and to provide comparability between all samples the volume of DMSO was adjusted to obtain its final concentration as 1% in the cell culture media for all the compounds at all concentrations tested.
# Results presented in Table 4 below are expressed as a fold growth relative to the control growth of the cells treated only with a co-solvent (1% DMSO), and are represented as a mean value from triplicates coming from a representative experiment.
structure (smiles),measurement,setting,value
"COc1ccc(N=Nc2cc(OC)c(OC)c(OC)c2)cc1O [I.1, 2-methoxy-5-((3,4,5-trimethoxyphenyl)diazenyl)phenol]",mean % subG1 phase,"MDA-MB-231 cells; 10 nM, 390 nm (350 ms every 5 min), 48 h",3.6%
same,mean % subG1 phase,"MDA-MB-231 cells; 10 nM, Dark, 48 h",6.7%
same,mean % subG1 phase,"MDA-MB-231 cells; 10 nM, MDA-MB-231, 390 nm only (150 ms pulse every 30 s), 48 h",0.3%
same,mean % subG1 phase,"MDA-MB-231 cells; 10 nM, MDA-MB-231, rescue protocol 390 nm + 515 nm (500 ms), 48 h",0.3%
same,mean % subG1 phase,"MDA-MB-231 cells; 100 nM, 390 nm (350 ms every 5 min), 48 h",3.9%
same,mean % subG1 phase,"MDA-MB-231 cells; 100 nM, MDA-MB-231, 390 nm only (150 ms pulse every 30 s), 48 h",0.3%
same,mean % subG1 phase,"MDA-MB-231 cells; 100 nM, MDA-MB-231, dark, 48 hours",2.1%
same,mean % subG1 phase,"MDA-MB-231 cells; 100 nM, MDA-MB-231, rescue protocol 390 nm + 515 nm (500 ms), 48 h",0.4%
same,mean % subG1 phase,"MDA-MB-231 cells; 100 nM, dark, 48 h",6.0%
same,mean % subG1 phase,"MDA-MB-231 cells; 400 nM, 390 nm (350 ms every 5 min), 48 h",4.2%
same,mean % subG1 phase,"MDA-MB-231 cells; 400 nM, MDA-MB-231, 390 nm only (150 ms pulse every 30 s), 48 h",14.0%
same,mean % subG1 phase,"MDA-MB-231 cells; 400 nM, MDA-MB-231, rescue protocol 390 nm + 515 nm (500 ms), 48 h",1.7%
same,mean % subG1 phase,"MDA-MB-231 cells; 400 nM, dark, 48 h",3.3%
same,mean % subG1 phase,"MDA-MB-231 cells; 600 nM, 390 nm (350 ms every 5 min), 48 h",16.8%
same,mean % subG1 phase,"MDA-MB-231 cells; 600 nM, MDA-MB-231, 390 nm only (150 ms pulse every 30 s), 48 h",22.9%
same,mean % subG1 phase,"MDA-MB-231 cells; 600 nM, MDA-MB-231, rescue protocol 390 nm + 515 nm (500 ms), 48 h",5.4%
same,mean % subG1 phase,"MDA-MB-231 cells; 600 nM, dark, 48 h",3.9%
same,mean % subG1 phase,"MDA-MB-231 cells; 800 nM, 390 nm (350 ms every 5 min), 48 h",32.1%
same,mean % subG1 phase,"MDA-MB-231 cells; 800 nM, Dark, 48 h",3.0%
same,mean % subG1 phase,"MDA-MB-231 cells; 800 nM, MDA-MB-231, 390 nm only (150 ms pulse every 30 s), 48 h",19.4%
same,mean % subG1 phase,"MDA-MB-231 cells; 800 nM, MDA-MB-231, rescue protocol 390 nm + 515 nm (500 ms), 48 h",11.7%
same,mean % subG1 phase,"MDA-MB-231 cells; 1 μM, 390 nm (350 ms every 5 min), 48 h",55.7%
same,mean % subG1 phase,"MDA-MB-231 cells; 1 μM, MDA-MB-231, 390 nm only (150 ms pulse every 30 s), 48 h",22.5%
same,mean % subG1 phase,"MDA-MB-231 cells; 1 μM, MDA-MB-231, dark, 48 hours",2.0%
same,mean % subG1 phase,"MDA-MB-231 cells; 1 μM, MDA-MB-231, rescue protocol 390 nm + 515 nm (500 ms), 48 h",15.3%
same,mean % subG1 phase,"MDA-MB-231 cells; 1 μM, dark, 48 h",3.1%
same,mean % subG1 phase,"MDA-MB-231 cells; 1.2 μM, 390 nm (350 ms every 5 min), 48 h",56.6%
same,mean % subG1 phase,"MDA-MB-231 cells; 1.2 μM, DARK, 48 h",3.6%
same,mean % subG1 phase,"MDA-MB-231 cells; 1.5 μM, 390 nm (350 ms every 5 min), 48 h",76.1%
same,mean % subG1 phase,"MDA-MB-231 cells; 1.5 μM, DARK, 48 h",3.3%
same,mean % subG1 phase,"MDA-MB-231 cells; 2 μM, MDA-MB-231, 390 nm only (150 ms pulse every 30 s), 48 h",35.4%
same,mean % subG1 phase,"MDA-MB-231 cells; 2 μM, MDA-MB-231, rescue protocol 390 nm + 515 nm (500 ms), 48 h",25.0%
same,mean % subG1 phase,"MDA-MB-231 cells; 3 μM, 390 nm (350 ms every 5 min), 48 h",79.0%
same,mean % subG1 phase,"MDA-MB-231 cells; 3 μM, dark, 48 h",6.0%
same,mean % subG1 phase,"MDA-MB-231 cells; 6 μM, 390 nm (350 ms every 5 min), 48 h",83.5%
same,mean % subG1 phase,"MDA-MB-231 cells; 6 μM, DARK, 48 h",3.9%
same,mean % subG1 phase,"MDA-MB-231 cells; 10 μM, MDA-MB-231, dark, 48 hours",2.0%
same,mean % subG1 phase,"MDA-MB-231 cells; 15 μM, 390 nm (350 ms every 5 min), 48 h",83.7%
same,mean % subG1 phase,"MDA-MB-231 cells; 15 μM, DARK, 48 h",5.4%
same,mean % subG1 phase,"MDA-MB-231 cells; 50 μM, MDA-MB-231, dark, 48 hours",4.5%
same,mean % subG1 phase,"MDA-MB-231 cells; 75 μM, MDA-MB-231, dark, 48 hours",7.9%
same,mean % subG1 phase,"MDA-MB-231 cells; 85 μM, MDA-MB-231, dark, 48 hours",12.7%
same,mean % subG1 phase,"MDA-MB-231 cells; 100 μM, MDA-MB-231, dark, 48 hours",26.8%
same,mean % subG1 phase,"MDA-MB-231 cells; 125 μM, MDA-MB-231, dark, 48 hours",51.1%
same,mean % subG1 phase,"MDA-MB-231 cells; 150 μM, MDA-MB-231, dark, 48 hours",92.2%
same,mean % subG1 phase,"MDA-MB-231 cells; 175 μM, MDA-MB-231, dark, 48 hours",95.7%
same,mean % subG1 phase,"MDA-MB-231 cells; 200 μM, MDA-MB-231, dark, 48 hours",95.5%
same,EC50,"MDA-MB-231 cells; 390 nm regimen, 48 h",~1 µM
same,EC50,"MDA-MB-231 cells; in the dark, 48 h",~120 µM
same,mean fold growth,"HeLa cells [1]; 10 nM, 390 nm (150 ms every 30 s)",0.95 fold
same,mean fold growth,"HeLa cells [1]; 10 nM, Dark",0.93 fold
same,mean fold growth,"HeLa cells [1]; 20 nM, 390 nm (150 ms every 30 s)",0.96 fold
same,mean fold growth,"HeLa cells [1]; 20 nM, Dark",1.02 fold
same,mean fold growth,"HeLa cells [1]; 50 nM, 390 nm (150 ms every 30 s)",0.96 fold
same,mean fold growth,"HeLa cells [1]; 50 nM, Dark",1.01 fold
same,mean fold growth,"HeLa cells [1]; 100 nM, 390 nm (150 ms every 30 s)",0.93 fold
same,mean fold growth,"HeLa cells [1]; 100 nM, dark",1.01 fold
same,mean fold growth,"HeLa cells [1]; 400 nM, 390 nm (150 ms every 30 s)",0.28 fold
same,mean fold growth,"HeLa cells [1]; 400 nM, dark",1.00 fold
same,mean fold growth,"HeLa cells [1]; 400 nM, rescue: 390 nm (150 ms) then 505 nm (500 ms) every 30 s",0.46 fold
same,mean fold growth,"HeLa cells [1]; 600 nM, 390 nm (150 ms every 30 s)",0.21 fold
same,mean fold growth,"HeLa cells [1]; 600 nM, dark",1.05 fold
same,mean fold growth,"HeLa cells [1]; 800 nM, 390 nm (150 ms every 30 s)",0.17 fold
same,mean fold growth,"HeLa cells [1]; 800 nM, Dark",0.98 fold
same,mean fold growth,"HeLa cells [1]; 1 μM, 390 nm (150 ms every 30 s)",0.18 fold
same,mean fold growth,"HeLa cells [1]; 1 μM, dark",0.93 fold
same,mean fold growth,"HeLa cells [1]; 2 μM, 390 nm (150 ms every 30 s)",0.21 fold
same,mean fold growth,"HeLa cells [1]; 2 μM, Dark",0.98 fold
same,toxicity,"HeLa cells [1]; in the dark, 10 nM-2 μM",no toxicity
same,concentration inducing severe cytotoxicity,HeLa cells [1]; upon exposure to the light (390 nm),≥ 400 nM
same,mean fold growth,"HeLa cells [2]; 100 nM, 390 nm (75 ms every 15 s)",0.95 fold
same,mean fold growth,"HeLa cells [2]; 100 nM, Dark",0.95 fold
same,mean fold growth,"HeLa cells [2]; 500 nM, 390 nm (75 ms every 15 s)",0.85 fold
same,mean fold growth,"HeLa cells [2]; 500 nM, Dark",0.89 fold
same,mean fold growth,"HeLa cells [2]; 1 μM, 390 nm (75 ms every 15 s)",0.43 fold
same,mean fold growth,"HeLa cells [2]; 1 μM, Dark",0.87 fold
same,mean fold growth,"HeLa cells [2]; 2 μM, 390 nm (75 ms every 15 s)",0.35 fold
same,mean fold growth,"HeLa cells [2]; 2 μM, Dark",0.89 fold
same,mean fold growth,"HeLa cells [2]; 5 μM, 390 nm (75 ms every 15 s)",0.27 fold
same,mean fold growth,"HeLa cells [2]; 5 μM, Dark",0.84 fold
same,mean fold growth,"HeLa cells [2]; 10 μM, 390 nm (75 ms every 15 s)",0.35 fold
same,mean fold growth,"HeLa cells [2]; 10 μM, Dark",0.75 fold
